Experimental data from ChEMBL document CHEMBL1201862, “PubChem BioAssay data set” (2004).
Active and inactive are the calls of the source.

Legend:
[1] = biological target: T1, Bifunctional protein GlmU (Mycobacterium tuberculosis, UniProt P9WMN3); assay: Inhibitors of Mycobacterial Glucosamine-1-phosphate acetyl transferase (GlmU). Secondary screen.; parameters: species or system Mycobacterium tuberculosis H37Rv
T1 sequence (P9WMN3 whole entry): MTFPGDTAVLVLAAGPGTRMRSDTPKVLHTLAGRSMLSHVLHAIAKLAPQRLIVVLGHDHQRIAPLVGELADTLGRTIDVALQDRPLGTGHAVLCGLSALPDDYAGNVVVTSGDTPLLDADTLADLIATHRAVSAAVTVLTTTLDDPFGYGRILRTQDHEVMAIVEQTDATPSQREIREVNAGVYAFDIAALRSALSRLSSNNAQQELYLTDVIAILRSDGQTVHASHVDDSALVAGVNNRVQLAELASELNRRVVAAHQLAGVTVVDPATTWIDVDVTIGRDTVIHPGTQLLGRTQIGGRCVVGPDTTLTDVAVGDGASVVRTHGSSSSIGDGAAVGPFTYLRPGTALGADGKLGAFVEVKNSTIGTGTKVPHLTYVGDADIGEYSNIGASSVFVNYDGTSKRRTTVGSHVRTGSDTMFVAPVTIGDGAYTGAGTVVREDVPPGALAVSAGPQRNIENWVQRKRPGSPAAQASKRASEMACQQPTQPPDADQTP

Procathepsin L = Procathepsin L (Homo sapiens, UniProt P07711)
[2] = A549 cell cytotoxicity, dose response, cytotoxicity control, plate reader, cherry-pick, antagonist series (AID 743412); assay type: functional, cell-based
[3] = biological target: Glutathione-S-transferase (Schistosoma japonicum, UniProt Q26513); assay: GST-antibody interaction or FRET quenching – biochemical, TR-FRET, artefact control for Vif-APOBEC3G degradation inhibitor project, dose response (AID 1117362); assay type: functional
Aminopeptidase N = biological target: T2, Aminopeptidase N (Plasmodium falciparum FcB1/Columbia, UniProt O96935); assay: malaria alanyl aminopeptidase activity blockers – biochemical, fluorogenic H-Leu-NHMec substrate, 1536-well (AID 1445); parameters: species or system Plasmodium falciparum 3D7, 3D7
T2 sequence (O96935 whole entry): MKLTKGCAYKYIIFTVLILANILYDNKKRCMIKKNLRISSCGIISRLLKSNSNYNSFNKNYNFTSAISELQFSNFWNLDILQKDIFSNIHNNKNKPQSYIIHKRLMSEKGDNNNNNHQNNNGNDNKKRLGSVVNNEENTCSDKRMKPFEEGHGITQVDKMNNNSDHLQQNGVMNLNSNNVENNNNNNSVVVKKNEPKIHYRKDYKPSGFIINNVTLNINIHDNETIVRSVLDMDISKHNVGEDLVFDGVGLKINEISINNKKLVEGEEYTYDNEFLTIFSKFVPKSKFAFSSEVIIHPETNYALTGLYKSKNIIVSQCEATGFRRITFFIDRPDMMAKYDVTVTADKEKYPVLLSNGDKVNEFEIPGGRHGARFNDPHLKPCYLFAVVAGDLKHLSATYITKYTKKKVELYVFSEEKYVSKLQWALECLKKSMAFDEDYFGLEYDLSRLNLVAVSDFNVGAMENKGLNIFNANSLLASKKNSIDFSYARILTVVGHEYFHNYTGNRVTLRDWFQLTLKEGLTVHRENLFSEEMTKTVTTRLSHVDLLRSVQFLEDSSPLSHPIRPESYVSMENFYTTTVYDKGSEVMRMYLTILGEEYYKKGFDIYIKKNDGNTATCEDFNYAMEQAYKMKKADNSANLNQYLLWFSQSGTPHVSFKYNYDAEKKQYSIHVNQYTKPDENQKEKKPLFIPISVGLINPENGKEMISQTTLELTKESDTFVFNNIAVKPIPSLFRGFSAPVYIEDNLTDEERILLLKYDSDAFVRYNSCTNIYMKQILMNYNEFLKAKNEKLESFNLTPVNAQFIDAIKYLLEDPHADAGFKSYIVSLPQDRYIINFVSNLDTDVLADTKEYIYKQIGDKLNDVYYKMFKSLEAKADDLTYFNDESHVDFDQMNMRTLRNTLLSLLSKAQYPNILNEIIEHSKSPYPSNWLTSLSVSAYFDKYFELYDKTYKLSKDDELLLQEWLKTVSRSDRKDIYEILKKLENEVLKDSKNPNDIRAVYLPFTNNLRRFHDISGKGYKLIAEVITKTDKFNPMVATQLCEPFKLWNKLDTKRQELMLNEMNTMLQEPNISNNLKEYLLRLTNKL

[4] = biological target: Intestinal-type alkaline phosphatase (Mus musculus, UniProt P24822); assay: PubChem AID 488785; assay type: functional
[5] = biological target: Intestinal-type alkaline phosphatase (Homo sapiens, UniProt P09923); assay: inhibition of human intestinal alkaline phosphatase – biochemical, dose response (AID 488876); assay type: functional
Chain of Intestinal-type alkaline phosphatase (Homo sapiens, UniProt P09923) (P09923 whole entry): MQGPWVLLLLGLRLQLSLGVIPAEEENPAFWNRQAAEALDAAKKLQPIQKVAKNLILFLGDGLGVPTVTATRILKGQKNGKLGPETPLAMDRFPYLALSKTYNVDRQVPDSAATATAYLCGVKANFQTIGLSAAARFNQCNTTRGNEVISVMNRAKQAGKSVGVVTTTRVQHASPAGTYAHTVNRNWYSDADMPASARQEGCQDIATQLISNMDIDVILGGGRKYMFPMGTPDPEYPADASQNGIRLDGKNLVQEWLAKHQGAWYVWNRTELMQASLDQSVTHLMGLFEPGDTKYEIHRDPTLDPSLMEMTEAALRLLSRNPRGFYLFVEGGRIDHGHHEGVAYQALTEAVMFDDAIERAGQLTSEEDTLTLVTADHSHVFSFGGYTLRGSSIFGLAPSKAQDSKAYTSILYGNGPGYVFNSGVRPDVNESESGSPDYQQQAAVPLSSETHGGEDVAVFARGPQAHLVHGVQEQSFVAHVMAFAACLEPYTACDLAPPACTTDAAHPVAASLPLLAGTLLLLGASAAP

Chain of Intestinal-type alkaline phosphatase (Mus musculus, UniProt P24822) (P24822 whole entry): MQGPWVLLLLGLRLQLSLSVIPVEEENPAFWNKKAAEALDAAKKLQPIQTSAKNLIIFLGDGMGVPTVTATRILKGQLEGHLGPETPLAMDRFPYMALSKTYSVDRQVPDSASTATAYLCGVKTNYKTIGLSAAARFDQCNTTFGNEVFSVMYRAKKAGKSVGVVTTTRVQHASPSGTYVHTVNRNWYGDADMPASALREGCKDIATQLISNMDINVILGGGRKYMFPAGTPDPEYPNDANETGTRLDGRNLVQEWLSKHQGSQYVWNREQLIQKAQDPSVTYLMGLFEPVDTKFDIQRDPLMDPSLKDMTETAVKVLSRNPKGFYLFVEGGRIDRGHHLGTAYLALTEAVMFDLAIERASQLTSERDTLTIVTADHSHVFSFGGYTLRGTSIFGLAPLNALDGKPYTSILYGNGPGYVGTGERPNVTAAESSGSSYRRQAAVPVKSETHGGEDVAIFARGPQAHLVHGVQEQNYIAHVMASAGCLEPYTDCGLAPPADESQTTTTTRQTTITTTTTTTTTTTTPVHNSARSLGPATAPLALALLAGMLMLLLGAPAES
Chain of Glutathione-S-transferase (Q26513 whole entry): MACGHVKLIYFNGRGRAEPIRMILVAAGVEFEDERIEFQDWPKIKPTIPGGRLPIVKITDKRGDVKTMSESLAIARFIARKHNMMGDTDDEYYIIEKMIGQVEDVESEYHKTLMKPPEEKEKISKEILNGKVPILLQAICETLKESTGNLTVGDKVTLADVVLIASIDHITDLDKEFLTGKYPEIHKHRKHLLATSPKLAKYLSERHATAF
Chain of Procathepsin L (P07711 whole entry): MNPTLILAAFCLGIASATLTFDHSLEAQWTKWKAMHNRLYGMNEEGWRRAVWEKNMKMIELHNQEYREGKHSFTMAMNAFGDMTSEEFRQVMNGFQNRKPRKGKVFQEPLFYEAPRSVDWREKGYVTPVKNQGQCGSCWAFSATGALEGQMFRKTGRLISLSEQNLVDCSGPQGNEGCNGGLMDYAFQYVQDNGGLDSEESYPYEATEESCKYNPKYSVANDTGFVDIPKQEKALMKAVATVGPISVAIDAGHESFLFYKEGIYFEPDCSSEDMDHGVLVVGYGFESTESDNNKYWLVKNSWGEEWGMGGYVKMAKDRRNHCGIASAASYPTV

O=C(O)c1cc(N2N=C(C(F)(F)F)/C(=C/C=C/c3ccco3)C2=O)ccc1Cl
IC50 [1]: 94.3 µM (active)

CNCc1ccccc1Sc1ccc(O)c(O)c1
IC50 (Procathepsin L): > 59.6 µM (not active) | AC50 [2]: > 52 µM (inactive) | IC50 [3]: 16 µM (active)

Cc1cc(C)c(S(=O)(=O)Nc2cc(SCC(=O)O)c(O)c3ccccc23)cc1C
IC50 (Aminopeptidase N): 48.5 µM (active)

O=C(/C=C/c1ccco1)NC(=S)Nc1cccc(C(=O)O)c1
IC50 [4]: 9.52 µM (active) | IC50 [5]: > 100 µM (inactive)
